Data reported in PMC12652692, “Synthesis and In Vitro Anticancer Evaluation of Novel Phosphonium Derivatives of Chrysin” (International Journal of Molecular Sciences, 2025).

Legend:
Assay in all cases: NCI60 one-dose screen
Format in all cases: cell-based
A498 = details: Homo sapiens; A498, 10 μM; read-out: Growth percent
Method in brief: (§1)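 Each cell line received a single 10 µM dose. Cells were fixed with cold TCA after 48 h, stained with 0.4% SRB, and read at 515 nm, with percent growth normalised to the control and time-zero plates.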

CAKI-1 = details: Homo sapiens; CAKI-1, 10 μM; read-out: Growth percent
Method in brief: as §1

EKVX = details: Homo sapiens, read-out: Growth percent
Method in brief: as §1

HCT-116 = details: Homo sapiens; HCT-116, 10 μM; read-out: Growth percent
Method in brief: as §1

HL-60(TB) = details: Homo sapiens, read-out: Growth percent
Method in brief: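 Percent growth is reported relative to untreated control and to the cell number at drug addition, so values below 0 indicate cell killing. It was measured by SRB protein staining after 48 h incubation with 10 µM compound.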

IGROV1 = details: Homo sapiens, IGROV-1; IGROV1, 10 μM; read-out: Growth percent
Method in brief: as §1

LOX IMVI = details: Homo sapiens, read-out: Growth percent
Method in brief: as §1

MCF7 = details: Homo sapiens; MCF7, 10 μM; read-out: Growth percent
Method in brief: as §1

MDA-MB-231/ATCC = details: Homo sapiens, read-out: Growth percent
Method in brief: as §1

MOLT-4 = details: Homo sapiens; MOLT-4, 10 μM; read-out: Growth percent
Method in brief: as §1

NCI-H23 = details: Homo sapiens; NCI-H23, 10 μM; read-out: Growth percent
Method in brief: as §1

NCI-H322M = details: Homo sapiens, read-out: Growth percent
Method in brief: as §1

NCI-H522 = details: Homo sapiens; NCI-H522, 10 μM; read-out: Growth percent
Method in brief: as §1

OVCAR-3 = details: Homo sapiens; OVCAR-3, 10 μM; read-out: Growth percent
Method in brief: as §1

OVCAR-8 = details: Homo sapiens; OVCAR-8, 10 μM; read-out: Growth percent
Method in brief: as §1

SF-268 = details: Homo sapiens; SF-268, 10 μM; read-out: Growth percent
Method in brief: as §1

SF-539 = details: Homo sapiens; SF-539, 10 μM; read-out: Growth percent
Method in brief: as §1

SK-MEL-28 = details: Homo sapiens; SK-MEL-28, 10 μM; read-out: Growth percent
Method in brief: as §1

SN12C = details: Homo sapiens, read-out: Growth percent
Method in brief: as §1

SNB-19 = details: Homo sapiens; SNB-19, 10 μM; read-out: Growth percent
Method in brief: as §1

UO-31 = details: Homo sapiens; UO-31, 10 μM; read-out: Growth percent
Method in brief: as §1

| Compound | activity at 10 µM (A498) [%] | activity at 10 µM (CAKI-1) [%] | activity at 10 µM (EKVX) [%] | activity at 10 µM (HCT-116) [%] | activity at 10 µM (HL-60(TB)) [%] | activity at 10 µM (IGROV1) [%] | activity at 10 µM (LOX IMVI) [%] | activity at 10 µM (MCF7) [%] | activity at 10 µM (MDA-MB-231/ATCC) [%] | activity at 10 µM (MOLT-4) [%] | activity at 10 µM (NCI-H23) [%] | activity at 10 µM (NCI-H322M) [%] | activity at 10 µM (NCI-H522) [%] | activity at 10 µM (OVCAR-3) [%] | activity at 10 µM (OVCAR-8) [%] | activity at 10 µM (SF-268) [%] | activity at 10 µM (SF-539) [%] | activity at 10 µM (SK-MEL-28) [%] | activity at 10 µM (SN12C) [%] | activity at 10 µM (SNB-19) [%] | further results |
| --- | --- | --- | --- | --- | --- | --- | --- | --- | --- | --- | --- | --- | --- | --- | --- | --- | --- | --- | --- | --- | --- |
| O=c1cc(-c2ccccc2)oc2cc(OCCCC[P+](c3ccccc3)(c3ccccc3)c3ccccn3)cc(O)c12 [3h] | -94 | -71.2 | -93.1 | -61.6 | 0.68 | -80.1 | -84.1 | -62.6 | -94.3 | 21.1 | -89.3 | -94.5 | -72.3 | -93.7 | -91.6 | -67.6 | -96.5 | -94.7 | -91.4 | -91.6 | activity at 10 µM (UO-31): -94% |
| O=c1cc(-c2ccccc2)oc2cc(O)cc(O)c12 [compound 2, 5,7-dihydroxyflavone, reference compound] | 86.6 | 83.6 | 89.3 | 82.7 | 116 | 95.2 | 85.1 | 103 | 82.6 | 106 | 92.6 | 98.3 | 89 | 97.6 | 95.2 | 102 | 92.2 | 102 | 85.8 | 86 | activity at 10 µM (UO-31): 89.4% |
